Results taken from ChEMBL document CHEMBL1201862, “PubChem BioAssay data set” (2004).
Blank lines part the entries; values can stand above or below the compound they belong to. Calls of active or inactive are those of the source.

Legend:
[1] = tested on: Trypanosoma cruzi; assay: anti-trypanosomal activity in host cells – cell-based, plate reader, dry powder, set 3, dose response (AID 493197); type: functional
[2] = target: T1, Aminopeptidase N (Plasmodium falciparum FcB1/Columbia, UniProt O96935); assay: malaria alanyl aminopeptidase activity blockers – biochemical, fluorogenic H-Leu-NHMec substrate, 1536-well (AID 1445); design: species or system Plasmodium falciparum 3D7, 3D7
T1 sequence (O96935 whole entry): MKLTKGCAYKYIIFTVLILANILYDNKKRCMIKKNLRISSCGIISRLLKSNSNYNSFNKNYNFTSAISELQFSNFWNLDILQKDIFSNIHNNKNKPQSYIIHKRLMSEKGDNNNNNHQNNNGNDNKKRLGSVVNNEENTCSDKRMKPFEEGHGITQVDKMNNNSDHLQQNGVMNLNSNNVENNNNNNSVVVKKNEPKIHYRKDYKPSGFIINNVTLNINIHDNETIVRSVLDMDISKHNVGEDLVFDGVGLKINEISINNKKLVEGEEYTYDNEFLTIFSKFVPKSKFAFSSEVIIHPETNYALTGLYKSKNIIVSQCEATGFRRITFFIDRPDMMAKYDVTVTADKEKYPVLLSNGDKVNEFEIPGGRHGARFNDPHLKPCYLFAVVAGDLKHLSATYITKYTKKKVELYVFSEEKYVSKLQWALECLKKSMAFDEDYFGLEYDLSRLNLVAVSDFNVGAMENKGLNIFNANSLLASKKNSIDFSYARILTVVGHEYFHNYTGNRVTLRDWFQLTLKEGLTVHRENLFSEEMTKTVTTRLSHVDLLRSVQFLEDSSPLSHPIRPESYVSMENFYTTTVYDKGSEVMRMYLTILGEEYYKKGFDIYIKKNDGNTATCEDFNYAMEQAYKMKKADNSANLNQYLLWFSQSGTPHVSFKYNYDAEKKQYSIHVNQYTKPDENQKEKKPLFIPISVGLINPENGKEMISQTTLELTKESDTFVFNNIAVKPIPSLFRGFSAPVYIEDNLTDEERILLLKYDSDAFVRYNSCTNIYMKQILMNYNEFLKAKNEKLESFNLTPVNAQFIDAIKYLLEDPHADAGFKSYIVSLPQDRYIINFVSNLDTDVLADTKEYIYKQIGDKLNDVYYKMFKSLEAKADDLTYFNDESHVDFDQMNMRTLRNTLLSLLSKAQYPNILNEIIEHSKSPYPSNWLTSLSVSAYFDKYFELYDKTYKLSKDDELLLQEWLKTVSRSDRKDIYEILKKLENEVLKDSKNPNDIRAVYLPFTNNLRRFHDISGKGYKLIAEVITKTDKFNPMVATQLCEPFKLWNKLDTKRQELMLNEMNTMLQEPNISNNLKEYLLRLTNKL

[3] = target: Transitional endoplasmic reticulum ATPase (Homo sapiens, UniProt P55072, C522A); assay: C522A mutant p97 ATPase inhibitors, dose response, counter-screen for p97 inhibitor project, biochemical, luminescence (AID 1544)
[4] = target: Transitional endoplasmic reticulum ATPase (Homo sapiens, UniProt P55072); assay: p97 ATPase inhibitors, dose response, biochemical (AID 1534)
[5] = target: G-protein coupled receptor 35 (Homo sapiens, UniProt Q9HC97); assay: inhibition of zaprinast-stimulated GPR35 beta-arrestin translocation – imaging, U2OS, beta-arrestin-GFP, zaprinast agonist, primary screen (AID 2058); type: functional;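 also: antagonist potency meaning inhibition of agonist-induced arrestin redistribution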
[6] = target: 26S proteasome non-ATPase regulatory subunit 14 (Homo sapiens, UniProt O00487); assay: inhibition of proteasome subunit RPN11 – biochemical, fluorescence polarization, uHTS hits, confirmation (AID 602368); type: functional
[7] = target: 72 kDa type IV collagenase (Homo sapiens, UniProt P08253); assay: Dose Response validation of uHTS RPN11 inhibitor hits using a MMP-2 Fluorescence assay.; type: functional
[8] = target: Prothrombin (Bos taurus, UniProt P00735); assay: thrombin protease inhibitors – biochemical, fluorescence polarization, uHTS hits, dose response (AID 602369); type: functional
[9] = target: T2, Histone-lysine N-methyltransferase NSD2 (Homo sapiens, UniProt O96028); type: biochemical
T2 sequence (O96028 whole entry): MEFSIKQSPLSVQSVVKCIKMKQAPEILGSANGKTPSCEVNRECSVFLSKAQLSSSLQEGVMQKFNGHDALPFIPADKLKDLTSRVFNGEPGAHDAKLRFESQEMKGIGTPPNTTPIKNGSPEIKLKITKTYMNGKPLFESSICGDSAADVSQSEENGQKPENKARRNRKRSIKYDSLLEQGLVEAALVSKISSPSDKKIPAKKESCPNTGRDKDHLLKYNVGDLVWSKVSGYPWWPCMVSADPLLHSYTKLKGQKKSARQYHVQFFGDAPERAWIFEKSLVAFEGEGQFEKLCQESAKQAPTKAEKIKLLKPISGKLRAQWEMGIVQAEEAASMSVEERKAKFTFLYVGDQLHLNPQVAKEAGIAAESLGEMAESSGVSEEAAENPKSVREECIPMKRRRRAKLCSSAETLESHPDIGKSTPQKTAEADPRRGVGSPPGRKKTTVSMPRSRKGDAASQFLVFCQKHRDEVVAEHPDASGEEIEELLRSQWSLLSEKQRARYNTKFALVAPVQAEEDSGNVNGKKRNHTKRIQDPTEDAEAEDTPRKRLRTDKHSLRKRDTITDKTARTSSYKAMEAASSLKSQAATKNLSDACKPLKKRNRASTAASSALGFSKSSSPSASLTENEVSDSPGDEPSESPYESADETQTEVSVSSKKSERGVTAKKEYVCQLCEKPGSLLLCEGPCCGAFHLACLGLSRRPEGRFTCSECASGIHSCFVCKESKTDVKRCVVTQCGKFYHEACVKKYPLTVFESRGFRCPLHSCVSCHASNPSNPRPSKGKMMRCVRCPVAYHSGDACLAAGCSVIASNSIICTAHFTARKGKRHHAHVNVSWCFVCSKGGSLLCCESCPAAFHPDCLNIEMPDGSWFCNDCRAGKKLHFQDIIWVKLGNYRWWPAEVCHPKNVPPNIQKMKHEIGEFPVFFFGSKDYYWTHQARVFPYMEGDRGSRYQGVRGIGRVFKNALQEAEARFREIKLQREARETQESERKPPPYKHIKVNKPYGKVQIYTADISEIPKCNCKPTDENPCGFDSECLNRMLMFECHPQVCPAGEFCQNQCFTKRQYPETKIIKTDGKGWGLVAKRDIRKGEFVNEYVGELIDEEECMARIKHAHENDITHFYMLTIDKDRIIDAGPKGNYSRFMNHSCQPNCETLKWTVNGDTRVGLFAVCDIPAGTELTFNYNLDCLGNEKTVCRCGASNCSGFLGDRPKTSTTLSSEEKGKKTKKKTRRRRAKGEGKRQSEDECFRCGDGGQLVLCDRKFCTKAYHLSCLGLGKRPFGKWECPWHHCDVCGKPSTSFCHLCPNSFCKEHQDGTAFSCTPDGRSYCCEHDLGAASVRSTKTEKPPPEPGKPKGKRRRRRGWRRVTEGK

[10] = target: T3, RNA-binding protein pos-1 (Caenorhabditis elegans, UniProt G5EF15); assay: disruptors of C. elegans POS-1 RNA interaction – biochemical, fluorescence polarization, dose response (AID 1964);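 also: purified POS-1 fused to maltose binding protein made in E. coli; potency of compounds blocking POS-1 binding to fluorescent RNA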
T3 sequence (G5EF15 whole entry): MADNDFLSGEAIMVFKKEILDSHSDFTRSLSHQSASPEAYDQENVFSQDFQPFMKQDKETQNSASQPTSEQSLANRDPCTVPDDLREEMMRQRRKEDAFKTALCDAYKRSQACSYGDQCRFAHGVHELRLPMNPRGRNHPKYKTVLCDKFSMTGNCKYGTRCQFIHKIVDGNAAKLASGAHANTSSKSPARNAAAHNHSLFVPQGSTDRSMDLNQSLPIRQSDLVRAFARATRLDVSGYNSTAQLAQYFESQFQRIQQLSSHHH

[11] = target: T4, Zinc finger protein mex-5 (Caenorhabditis elegans, UniProt Q9XUB2); assay: potency of MEX-5 RNA-binding blockers – biochemical, C. elegans, fluorescence polarization, dose response (AID 1960)
T4 sequence (Q9XUB2 whole entry): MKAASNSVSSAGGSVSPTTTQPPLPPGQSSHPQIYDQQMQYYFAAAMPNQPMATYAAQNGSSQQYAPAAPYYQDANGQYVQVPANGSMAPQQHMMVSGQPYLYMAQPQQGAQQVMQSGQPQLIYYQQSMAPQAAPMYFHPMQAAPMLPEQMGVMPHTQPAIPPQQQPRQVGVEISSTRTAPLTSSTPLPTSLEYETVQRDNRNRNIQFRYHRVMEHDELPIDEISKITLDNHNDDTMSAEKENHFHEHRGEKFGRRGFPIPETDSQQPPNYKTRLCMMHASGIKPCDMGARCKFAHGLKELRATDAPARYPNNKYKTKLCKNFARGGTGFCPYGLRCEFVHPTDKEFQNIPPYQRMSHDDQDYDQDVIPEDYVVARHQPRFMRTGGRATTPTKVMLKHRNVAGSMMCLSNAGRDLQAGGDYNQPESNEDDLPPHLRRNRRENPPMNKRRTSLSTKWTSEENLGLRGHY

[12] = target: T5, Estrogen receptor (Homo sapiens, UniProt P03372);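 also: potency for inhibiting coactivator peptide recruitment to the receptor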
T5 sequence (P03372 whole entry): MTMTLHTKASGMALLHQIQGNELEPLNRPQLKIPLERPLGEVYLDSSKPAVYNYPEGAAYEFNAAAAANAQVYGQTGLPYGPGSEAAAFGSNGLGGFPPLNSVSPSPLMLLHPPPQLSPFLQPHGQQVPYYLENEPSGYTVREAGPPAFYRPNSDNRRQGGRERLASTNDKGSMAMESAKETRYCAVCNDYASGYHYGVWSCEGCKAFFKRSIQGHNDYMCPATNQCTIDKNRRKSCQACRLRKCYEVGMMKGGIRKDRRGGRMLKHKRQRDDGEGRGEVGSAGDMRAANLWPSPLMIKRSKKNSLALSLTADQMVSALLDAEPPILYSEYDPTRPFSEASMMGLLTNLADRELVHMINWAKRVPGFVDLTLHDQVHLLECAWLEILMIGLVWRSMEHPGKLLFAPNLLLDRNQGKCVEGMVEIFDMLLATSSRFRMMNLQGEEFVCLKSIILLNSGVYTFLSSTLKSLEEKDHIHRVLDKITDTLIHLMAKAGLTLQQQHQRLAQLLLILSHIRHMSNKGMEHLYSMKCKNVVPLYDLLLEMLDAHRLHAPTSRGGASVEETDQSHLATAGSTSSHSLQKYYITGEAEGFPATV

[13] = target: Estrogen receptor beta (Homo sapiens, UniProt Q92731); assay: blockers of SRC-3 recruitment to ERβ – biochemical, ELISA, streptavidin-HRP readout, orthogonal assay, confirmation (AID 1060)
[14] = Cytotoxicity screening for potential Inhibitors of Bacterial Capsule Biogenesis. [Related pubchem assays (depositor defined):AID488970]; type: functional
[15] = target: Bcl-2-like protein 10 (Homo sapiens, UniProt Q9HD36); assay: Bcl-B/TR3 peptide binding disruption – biochemical, fluorescence polarization, FITC-TR3 peptide, selectivity assay for Bfl-1 inhibitor project, primary screen (AID 748);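 also: fluorescence polarization from a fluorescein-labelled TR3 peptide binding purified Bcl-B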
[16] = target: Lysosomal acid glucosylceramidase (Homo sapiens, UniProt P04062); assay: Dose response cell-based high throughput screening assay to identify enhancers of beta-glucosidase activity. [Related pubchem assays: 784 ]; type: functional
[17] = target: Melanin-concentrating hormone receptor 1 (Homo sapiens, UniProt Q99705); assay: Late-stage fluorescence-based counterscreen for antagonists of the G-protein coupled receptor 7 (GPR7): cell-based dose response assay to identify antagonists of the melanin-concentrating hormone receptor 1 (MCHR1). [Related pubchem assays (depositor defined):AID1861, AID1880, AID1952, AID2148, AID2251, AID2257, AID485339]; type: functional;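 also: stimulated with 30 nM MCH peptide agonist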
[18] = target: T6, Neuropeptides B/W receptor type 1 (Homo sapiens, UniProt P48145); assay: human NPBW1 receptor blockade, IC50 – cell-based, fluorescence, dose response, late-stage follow-up (AID 463251); type: functional
T6 sequence (P48145 whole entry): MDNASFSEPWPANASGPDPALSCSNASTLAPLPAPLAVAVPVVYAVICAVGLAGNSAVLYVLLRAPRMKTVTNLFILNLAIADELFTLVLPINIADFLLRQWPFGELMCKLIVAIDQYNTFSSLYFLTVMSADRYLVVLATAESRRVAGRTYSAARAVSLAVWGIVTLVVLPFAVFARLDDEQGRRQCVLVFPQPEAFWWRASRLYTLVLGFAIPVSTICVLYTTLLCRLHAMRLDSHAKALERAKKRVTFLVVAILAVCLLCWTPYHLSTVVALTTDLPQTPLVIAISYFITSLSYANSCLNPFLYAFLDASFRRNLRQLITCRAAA

[19] = target: Signal transducer and activator of transcription 3 (Homo sapiens, UniProt P40763); assay: STAT3 activation with BCL3 mRNA and toxicity – cell-based, […], BCL3 qPCR, cytotoxicity, late-stage follow-up, panel member STAT3 Activation (AID 2049)
Sequence of Signal transducer and activator of transcription 3 (P40763 whole entry): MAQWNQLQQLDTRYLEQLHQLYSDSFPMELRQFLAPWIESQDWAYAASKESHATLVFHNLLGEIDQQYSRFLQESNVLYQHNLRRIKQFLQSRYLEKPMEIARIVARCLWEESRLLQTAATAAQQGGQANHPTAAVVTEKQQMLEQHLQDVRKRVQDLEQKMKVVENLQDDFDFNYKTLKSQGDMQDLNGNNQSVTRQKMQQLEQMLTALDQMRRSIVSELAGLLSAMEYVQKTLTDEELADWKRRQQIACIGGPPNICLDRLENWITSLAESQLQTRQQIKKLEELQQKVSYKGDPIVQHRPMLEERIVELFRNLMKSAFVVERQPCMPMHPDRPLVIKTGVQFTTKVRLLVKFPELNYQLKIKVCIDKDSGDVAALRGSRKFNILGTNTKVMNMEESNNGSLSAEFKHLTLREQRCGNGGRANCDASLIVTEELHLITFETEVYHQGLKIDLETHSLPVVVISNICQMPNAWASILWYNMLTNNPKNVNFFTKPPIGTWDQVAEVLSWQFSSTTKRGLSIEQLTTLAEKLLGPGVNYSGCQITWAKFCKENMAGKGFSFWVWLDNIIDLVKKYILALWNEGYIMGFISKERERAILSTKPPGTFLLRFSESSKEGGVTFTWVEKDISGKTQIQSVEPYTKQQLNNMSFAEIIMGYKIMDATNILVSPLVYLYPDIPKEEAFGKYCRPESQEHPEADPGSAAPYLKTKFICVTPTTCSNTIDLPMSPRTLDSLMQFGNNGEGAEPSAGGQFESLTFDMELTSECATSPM

Sequence of 26S proteasome non-ATPase regulatory subunit 14 (O00487 whole entry): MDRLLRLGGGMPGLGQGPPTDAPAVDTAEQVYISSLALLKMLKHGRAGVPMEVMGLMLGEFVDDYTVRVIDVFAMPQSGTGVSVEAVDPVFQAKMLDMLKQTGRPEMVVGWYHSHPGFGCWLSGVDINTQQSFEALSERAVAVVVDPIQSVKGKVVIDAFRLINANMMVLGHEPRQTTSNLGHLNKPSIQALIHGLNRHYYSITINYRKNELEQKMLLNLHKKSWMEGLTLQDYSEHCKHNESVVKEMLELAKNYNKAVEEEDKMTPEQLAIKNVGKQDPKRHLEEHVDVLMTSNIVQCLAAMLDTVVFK
Sequence of Bcl-2-like protein 10 (Q9HD36 whole entry): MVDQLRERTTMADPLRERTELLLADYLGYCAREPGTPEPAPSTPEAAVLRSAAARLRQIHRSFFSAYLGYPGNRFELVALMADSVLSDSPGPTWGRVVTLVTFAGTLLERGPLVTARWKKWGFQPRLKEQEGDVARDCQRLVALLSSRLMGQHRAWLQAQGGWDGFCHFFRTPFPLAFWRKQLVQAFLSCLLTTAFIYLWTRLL
Sequence of G-protein coupled receptor 35 (Q9HC97 whole entry): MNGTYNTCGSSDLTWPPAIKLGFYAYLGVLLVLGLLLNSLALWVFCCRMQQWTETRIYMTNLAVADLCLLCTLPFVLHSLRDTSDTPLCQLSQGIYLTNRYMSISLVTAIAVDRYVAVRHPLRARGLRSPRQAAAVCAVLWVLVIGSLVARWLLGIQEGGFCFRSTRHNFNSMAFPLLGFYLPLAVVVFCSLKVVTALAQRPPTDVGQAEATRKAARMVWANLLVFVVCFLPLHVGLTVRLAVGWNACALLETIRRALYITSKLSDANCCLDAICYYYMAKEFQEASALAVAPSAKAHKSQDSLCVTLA
Sequence of Lysosomal acid glucosylceramidase (P04062 whole entry): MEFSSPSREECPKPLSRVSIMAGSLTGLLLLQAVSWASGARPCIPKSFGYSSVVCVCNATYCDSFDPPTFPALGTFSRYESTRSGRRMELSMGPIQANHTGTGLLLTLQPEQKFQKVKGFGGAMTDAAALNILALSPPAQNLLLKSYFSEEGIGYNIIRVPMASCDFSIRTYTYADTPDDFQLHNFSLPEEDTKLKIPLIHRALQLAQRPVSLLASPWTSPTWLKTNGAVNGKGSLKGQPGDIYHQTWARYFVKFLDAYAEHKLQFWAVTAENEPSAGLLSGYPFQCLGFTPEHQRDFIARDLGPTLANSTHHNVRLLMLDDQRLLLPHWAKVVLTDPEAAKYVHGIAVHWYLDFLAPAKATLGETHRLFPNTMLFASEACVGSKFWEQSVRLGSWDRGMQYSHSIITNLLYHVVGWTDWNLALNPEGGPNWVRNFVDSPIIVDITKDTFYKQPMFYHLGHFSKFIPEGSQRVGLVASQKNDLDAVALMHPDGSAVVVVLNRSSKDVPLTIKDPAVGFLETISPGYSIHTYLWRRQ
Sequence of Transitional endoplasmic reticulum ATPase (Homo sapiens, UniProt P55072, C522A) (P55072 2-806 C522A limits assumed): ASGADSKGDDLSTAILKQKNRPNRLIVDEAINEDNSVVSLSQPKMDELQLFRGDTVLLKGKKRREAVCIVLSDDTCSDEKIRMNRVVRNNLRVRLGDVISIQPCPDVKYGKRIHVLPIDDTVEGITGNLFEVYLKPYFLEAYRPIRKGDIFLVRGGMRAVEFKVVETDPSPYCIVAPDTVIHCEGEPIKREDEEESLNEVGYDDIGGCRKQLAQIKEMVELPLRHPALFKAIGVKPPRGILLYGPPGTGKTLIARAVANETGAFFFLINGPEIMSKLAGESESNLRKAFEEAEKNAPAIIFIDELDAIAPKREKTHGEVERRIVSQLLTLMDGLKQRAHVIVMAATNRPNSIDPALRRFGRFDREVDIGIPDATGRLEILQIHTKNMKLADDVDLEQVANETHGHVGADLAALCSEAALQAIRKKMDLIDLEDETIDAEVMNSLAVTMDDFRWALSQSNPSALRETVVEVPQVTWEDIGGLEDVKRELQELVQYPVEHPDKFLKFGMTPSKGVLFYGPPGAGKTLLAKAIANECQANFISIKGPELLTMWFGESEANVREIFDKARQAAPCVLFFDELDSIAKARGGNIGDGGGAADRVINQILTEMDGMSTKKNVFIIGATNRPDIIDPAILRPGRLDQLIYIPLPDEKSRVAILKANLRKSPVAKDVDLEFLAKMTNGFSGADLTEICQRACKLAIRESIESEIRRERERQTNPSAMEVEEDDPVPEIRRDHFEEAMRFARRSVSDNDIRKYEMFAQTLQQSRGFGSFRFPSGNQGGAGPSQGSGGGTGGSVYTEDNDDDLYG
Sequence of Transitional endoplasmic reticulum ATPase (Homo sapiens, UniProt P55072) (P55072 whole entry): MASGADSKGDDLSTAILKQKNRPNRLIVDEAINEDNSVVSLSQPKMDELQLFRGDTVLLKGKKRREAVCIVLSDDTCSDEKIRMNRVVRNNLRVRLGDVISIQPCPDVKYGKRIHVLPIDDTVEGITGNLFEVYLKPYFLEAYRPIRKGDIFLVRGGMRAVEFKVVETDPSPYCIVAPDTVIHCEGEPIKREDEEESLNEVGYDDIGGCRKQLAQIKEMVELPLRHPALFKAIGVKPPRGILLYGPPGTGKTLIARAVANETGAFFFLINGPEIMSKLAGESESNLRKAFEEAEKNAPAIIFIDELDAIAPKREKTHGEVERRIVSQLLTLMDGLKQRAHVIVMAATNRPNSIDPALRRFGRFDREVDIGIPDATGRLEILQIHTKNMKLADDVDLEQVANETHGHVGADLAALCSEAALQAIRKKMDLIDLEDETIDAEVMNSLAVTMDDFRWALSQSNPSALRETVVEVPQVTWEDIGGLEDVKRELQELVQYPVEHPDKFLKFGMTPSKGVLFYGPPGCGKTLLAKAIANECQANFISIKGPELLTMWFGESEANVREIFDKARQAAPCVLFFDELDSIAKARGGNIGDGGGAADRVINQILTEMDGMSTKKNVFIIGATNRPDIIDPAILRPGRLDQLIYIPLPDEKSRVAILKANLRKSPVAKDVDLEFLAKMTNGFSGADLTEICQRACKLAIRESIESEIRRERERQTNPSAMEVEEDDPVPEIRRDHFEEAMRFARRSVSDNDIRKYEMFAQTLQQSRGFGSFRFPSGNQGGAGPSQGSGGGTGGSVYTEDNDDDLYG
Sequence of Melanin-concentrating hormone receptor 1 (Q99705 whole entry): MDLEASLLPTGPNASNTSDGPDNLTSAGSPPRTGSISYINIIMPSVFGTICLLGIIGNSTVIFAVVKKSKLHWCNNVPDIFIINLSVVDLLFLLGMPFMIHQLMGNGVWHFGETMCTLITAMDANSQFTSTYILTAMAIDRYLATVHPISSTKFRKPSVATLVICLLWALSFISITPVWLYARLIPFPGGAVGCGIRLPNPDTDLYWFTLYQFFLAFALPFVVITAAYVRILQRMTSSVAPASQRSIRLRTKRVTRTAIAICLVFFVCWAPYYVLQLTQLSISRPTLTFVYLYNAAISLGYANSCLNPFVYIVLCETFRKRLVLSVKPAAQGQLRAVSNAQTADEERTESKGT
Sequence of 72 kDa type IV collagenase (P08253 whole entry): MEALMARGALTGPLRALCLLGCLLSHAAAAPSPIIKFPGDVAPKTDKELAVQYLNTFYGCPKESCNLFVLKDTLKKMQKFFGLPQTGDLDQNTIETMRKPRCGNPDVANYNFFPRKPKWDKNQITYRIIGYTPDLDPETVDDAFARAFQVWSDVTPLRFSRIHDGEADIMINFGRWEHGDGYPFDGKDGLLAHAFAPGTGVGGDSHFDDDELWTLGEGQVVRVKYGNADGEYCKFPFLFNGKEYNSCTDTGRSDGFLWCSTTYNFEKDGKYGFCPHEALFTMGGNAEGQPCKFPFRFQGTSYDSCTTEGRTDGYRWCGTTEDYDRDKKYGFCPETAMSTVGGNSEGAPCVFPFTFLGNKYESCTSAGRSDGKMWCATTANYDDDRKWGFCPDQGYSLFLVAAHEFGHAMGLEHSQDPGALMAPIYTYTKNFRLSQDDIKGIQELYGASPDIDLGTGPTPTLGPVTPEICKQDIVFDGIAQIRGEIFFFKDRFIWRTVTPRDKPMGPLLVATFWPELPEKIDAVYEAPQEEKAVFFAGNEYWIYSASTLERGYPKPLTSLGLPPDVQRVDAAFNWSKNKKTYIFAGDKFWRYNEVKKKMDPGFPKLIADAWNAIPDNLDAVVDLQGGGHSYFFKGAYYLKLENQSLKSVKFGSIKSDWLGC

SMILES: CCCN1CCC(N2CCCC(C(=O)N(C)CCc3ccc(OC)c(OC)c3)C2)CC1 (stereo not given)
AC50 [1]: 16.4 µM (active)

SMILES: CCC1=NN2C(=N)/C(=C\c3ccc(SCc4ccco4)o3)C(=O)N=C2S1
EC50 [10]: 4.36 µM (active)
EC50 [11]: 6.85 µM (active)
IC50 [12]: 21 µM (active)
IC50 [13]: > 50 µM (not active)
CC50 [14]: > 100 µM (active)
AC50 [9]: 16.2 µM (active)

SMILES: CC(C)n1c(S)nc2c1c(=O)[nH]c(=O)n2C
EC50 [16]: > 50 µM (not active)

SMILES: O=c1c(Oc2ccc(O)cc2)c(Cl)cnn1-c1ccccc1
IC50 [17]: 11.1 µM (inactive)
IC50 [18]: 2.8 µM (active)

SMILES: CCCc1cc(C(=O)Nc2cc(OC)c(Cl)cc2OC)no1
EC50 [19]: 0.00815 µM (active)

Now from value to compound:

IC50 [2]: 99.9 µM (active)
IC50 [3]: > 50 µM (not active)
IC50 [4]: > 50 µM (not active)
SMILES: COc1ccccc1C(=O)Oc1cc(N)n(S(=O)(=O)c2ccc(C)cc2)n1

IC50 [5]: < 0.5 µM (active)
IC50 [6]: 23.1 µM (active)
IC50 [7]: 97.4 µM (active)
IC50 [8]: 39.8 µM (active)
AC50 [9]: 18.6 µM (active)
SMILES: O=C(/C=C/c1ccco1)Nc1cccc(C(=O)Nc2ccccc2C(=O)O)c1

IC50 [15]: 69.1 µM (inactive)
SMILES: COc1ccccc1NCCC(=O)OCC(=O)NCc1ccco1
